Reference: patent US4703061A, “Gamma-aminobutyric acid derivatives, process for production thereof, and use thereof as medicaments” (priority 1984, dated 1987)
Counter-ions that a name gives are not always drawn.

What was measured:
[1] = system: planar locomotor activity of mice; experiment: Effects on planar locomotor activity, automex method; assay type: in vivo, ddY-strain male mice
Procedure: (§1) In Tests 1 to 4 given below, ddY-strain male mice (body weight 20-25 g) were used, and the experiments were carried out in a semi-soundproof, constant-temperature room kept at a temperature of 23±1° C. and a humidity of 55±2%. The mice were allowed to take feed and water freely.
The effects of the test compound on planar locomotor activity of the mice were examined by using an automex activity meter (made by Columbus Company). […] The test compound was intraperitoneally administered to the mice in doses indicated. Immediately then, five mice were put into each of transparent plastic cages (27×17×17 cm), and placed on the automex activity meter. The motor activity for 30 minutes was measured at 5 minutes intervals, and compared with that of the control group.

[2] = in vivo; conditions: mouse, in vivo, ip
Procedure: (§2) Calcium 4-(3,5-dihydroxy-3-methylpentylamide) butyrate was intraperitoneally administered in doses of 500 mg/kg and 1,000 mg/kg respectively to eight ddY-strain male mice (body weight 20 to 25 g).

[3] = system: ddY-strain male mice; experiment: Toxicity test, intraperitoneal (LD50); conditions: 500 mg/kg and 1,000 mg/kg i.p.; result in words
Procedure: as §2

[4] = system: motor activity induced by atropine; experiment: Antagonistic effect against atropine (automex method); assay type: in vivo, ddY-strain male mice; conditions: 600 mg/kg i.p. + atropine 30 mg/kg s.c.
Procedure: as §1
Test 4: Antagonistic effect against atropine (automex method)
Each of the test compounds was intraperitoneally administered to mice divided into 6-membered groups, and immediately then, atropine was subcutaneously injected into the mice in a dose of 30 mg/kg. The effect of each test compound on the enhancement of motor activity induced by atropine was examined in accordance with the automex method.

[5] = system: locomotor activity of mice; experiment: Effects on locomotor activity, wheel cage method; assay type: in vivo, ddY-strain male mice
Procedure: as §1
Test 1: Effects on locomotor activity
The effects of the test compound on the locomotor activities of the mice were examined by using wheel cages (made by Kishimoto Ika). […] The mice were used in groups each consisting of 8 mice. The test compound was intraperitoneally administered to the mice in the doses indicated, and immediately then, the mice were put into the cages. The locomotor activities (the number of revolutions) were measured for 90 minutes at 15 minute intervals, and compared with that of the control group.

CC(O)(CCO)CC(=O)NCCCC(=O)O (centres unmarked) [MV-GABA-Ca salt, calcium 4-(3,5-dihydroxy-3-methylpentylamide) butyrate]
Motor activity (total number of counts) ([1]; 500 mg/kg i.p., 5 minutes): 172 counts
Motor activity (total number of counts) ([1]; 500 mg/kg i.p., 10 minutes): 241 counts
Motor activity (total number of counts) ([1]; 500 mg/kg i.p., 15 minutes): 307 counts
Motor activity (total number of counts) ([1]; 500 mg/kg i.p., 20 minutes): 405 counts
Motor activity (total number of counts) ([1]; 500 mg/kg i.p., 25 minutes): 505 counts
Motor activity (total number of counts) ([1]; 500 mg/kg i.p., 30 minutes): 558 counts
Motor activity (total number of counts) ([1]; 1000 mg/kg i.p., 5 minutes): 91 counts
Motor activity (total number of counts) ([1]; 1000 mg/kg i.p., 10 minutes): 128 counts
Motor activity (total number of counts) ([1]; 1000 mg/kg i.p., 15 minutes): 156 counts
Motor activity (total number of counts) ([1]; 1000 mg/kg i.p., 20 minutes): 177 counts
Motor activity (total number of counts) ([1]; 1000 mg/kg i.p., 25 minutes): 189 counts
Motor activity (total number of counts) ([1]; 1000 mg/kg i.p., 30 minutes): 203 counts
LD50 [2]: > 2000 mg/kg
death [3]: no case of death
Motor activity (total number of counts) ([4]; 5 minutes): 8 counts
Motor activity (total number of counts) ([4]; 10 minutes): 12 counts
Motor activity (total number of counts) ([4]; 15 minutes): 19 counts
Motor activity (total number of counts) ([4]; 20 minutes): 27 counts
Motor activity (total number of counts) ([4]; 25 minutes): 47 counts
Motor activity (total number of counts) ([4]; 30 minutes): 92 counts
Motor activity (total number of revolutions per mouse) ([5]; 250 mg/kg i.p., 15 minutes): 201 revolutions per mouse
Motor activity (total number of revolutions per mouse) ([5]; 250 mg/kg i.p., 30 minutes): 406 revolutions per mouse
Motor activity (total number of revolutions per mouse) ([5]; 250 mg/kg i.p., 45 minutes): 560 revolutions per mouse
Motor activity (total number of revolutions per mouse) ([5]; 250 mg/kg i.p., 60 minutes): 727 revolutions per mouse
Motor activity (total number of revolutions per mouse) ([5]; 250 mg/kg i.p., 75 minutes): 865 revolutions per mouse
Motor activity (total number of revolutions per mouse) ([5]; 250 mg/kg i.p., 90 minutes): 916 revolutions per mouse
Motor activity (total number of revolutions per mouse) ([5]; 500 mg/kg i.p., 15 minutes): 132 revolutions per mouse
Motor activity (total number of revolutions per mouse) ([5]; 500 mg/kg i.p., 30 minutes): 289 revolutions per mouse
Motor activity (total number of revolutions per mouse) ([5]; 500 mg/kg i.p., 45 minutes): 448 revolutions per mouse
Motor activity (total number of revolutions per mouse) ([5]; 500 mg/kg i.p., 60 minutes): 615 revolutions per mouse
Motor activity (total number of revolutions per mouse) ([5]; 500 mg/kg i.p., 75 minutes): 826 revolutions per mouse
Motor activity (total number of revolutions per mouse) ([5]; 500 mg/kg i.p., 90 minutes): 1034 revolutions per mouse
Motor activity (total number of revolutions per mouse) ([5]; 1000 mg/kg i.p., 15 minutes): 76 revolutions per mouse
Motor activity (total number of revolutions per mouse) ([5]; 1000 mg/kg i.p., 30 minutes): 165 revolutions per mouse
Motor activity (total number of revolutions per mouse) ([5]; 1000 mg/kg i.p., 45 minutes): 265 revolutions per mouse
Motor activity (total number of revolutions per mouse) ([5]; 1000 mg/kg i.p., 60 minutes): 428 revolutions per mouse
Motor activity (total number of revolutions per mouse) ([5]; 1000 mg/kg i.p., 75 minutes): 639 revolutions per mouse
Motor activity (total number of revolutions per mouse) ([5]; 1000 mg/kg i.p., 90 minutes): 837 revolutions per mouse
